Measurements reported in US20230416199A1, “INHIBITORS OF AMINO ACID TRANSPORT” (ICAHN SCHOOL OF MEDICINE AT MOUNT SINAI, priority 2020, published 2023).
pKi: −log10 of the molar value.

Legend:
Type in all cases: cell-based
rASCT2 [1] = target: T1, rASCT2 (Rattus norvegicus, UniProt D3ZJ25); test: Electrophysiology (whole-cell current recording) of transfected HEK293 cells, rASCT2; settings: Table 3, dihydroxyproline derivatives; for pKi: read-out: Ki All DNA: rASCT2
T1 construct: expressed in transfected cells; host or cells: HEK293 (ATCC CRL-11268), transient transfection
T1 sequence (D3ZJ25 1-555): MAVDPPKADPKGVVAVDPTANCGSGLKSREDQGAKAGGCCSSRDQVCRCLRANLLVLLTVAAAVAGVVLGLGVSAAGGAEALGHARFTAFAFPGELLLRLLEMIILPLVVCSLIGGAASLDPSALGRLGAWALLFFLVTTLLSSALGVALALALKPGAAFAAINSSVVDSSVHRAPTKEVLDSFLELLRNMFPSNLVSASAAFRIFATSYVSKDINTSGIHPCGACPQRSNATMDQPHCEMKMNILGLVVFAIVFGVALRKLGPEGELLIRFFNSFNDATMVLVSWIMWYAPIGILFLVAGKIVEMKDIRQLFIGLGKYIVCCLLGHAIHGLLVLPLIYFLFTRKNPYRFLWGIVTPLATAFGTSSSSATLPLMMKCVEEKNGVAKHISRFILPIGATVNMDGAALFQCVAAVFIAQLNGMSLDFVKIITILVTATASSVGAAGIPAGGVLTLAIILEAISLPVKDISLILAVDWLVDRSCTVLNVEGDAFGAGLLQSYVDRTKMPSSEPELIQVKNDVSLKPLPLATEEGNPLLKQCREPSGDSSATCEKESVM
Description: (§1) Human embryonic kidney 293 (HEK293, ATCC CRL-11268) cells were cultured in DMEM media supplemented with 10% (v v) fetal bovine serum (FBS), 2 mM glutamine, 1% penicillin streptomycin solution, 1 mM sodium pyruvate and non-essential amino acids. Cells were maintained at 37° C. in a fully humidified atmosphere containing 5% CO2. rASCT2, hASCT2, hASCT1, EAAT1, EAAT2, EAAC1, EAAT5 and YFP complementary DNAs were each used to transiently transfect HEK293 using POLYPLUS Jet-prime transfection reagent. Cells were analyzed using electrophysiological techniques 24-40 hours after transfection.
(§2) Stock solutions of inhibitor was prepared in dimethyl sulfoxide (DMSO) up to 100 mM. Dilutions to working concentrations were made using external buffer. […] For rASCT2, hASCT2 and hASCT1, external buffer contained 140 mM NaCl, 2 mM MgCl2, 2 mM CaCl2), and 10 mM HEPES, pH 7.40 while internal pipette solution comprised of 130 mM NaSCN, 2 mM MgCl2, 10 mM EGTA, 10 mM HEPES and 10 mM alanine, pH 7.40. For specificity experiments with EAAT1, EAAT2, EAAC1 and EAAT5, internal solution contained 10 mM glutamate instead of alanine. Compounds were applied to HEK293 cells expressing DNA of interest suspended from a current recording electrode in whole cell configuration through a rapid solution exchange device. Cells are immersed in external buffer bath used to dissolve the inhibitors. The open pipette resistance was between 3 and 6 MΩ. Series resistance was not compensated in these experiments due to relatively small currents. Currents traces were recorded using an Adams and List EPC7 amplifier and digitized using a Molecular Devices Digidata A/D converter.
(§3) Linear and nonlinear curve fitting of the experimental data were analyzed using MicroCal Origin software. Nonlinear dose-response relationships were fitted with a Michaelis-Menten-like equation to obtain apparent Ki values in the absence of substrate (see TABLE 2 for Ki values). The figures show representative current traces and dose-response curves for hACST2 and rASCT2, used to obtain Ki values in TABLE 2 for compound SN 40. At least four experiments were performed with at least three different cells. Error bars in all graphs, e.g., in FIG. 1B and FIG. 1C and tables (Ki values) represent mean±SD.

hASCT2 [2] = target: T2, hASCT2 (Homo sapiens, UniProt Q15758); test: Competition experiment with alanine, hASCT2; settings: first entry of the cell; for pKi: read-out: Competition Expt (h/rASCT2 Ki): hASCT2 Ki
T2 construct: expressed in transfected cells; host or cells: HEK293 (ATCC CRL-11268), transient transfection
T2 sequence (Q15758 1-541): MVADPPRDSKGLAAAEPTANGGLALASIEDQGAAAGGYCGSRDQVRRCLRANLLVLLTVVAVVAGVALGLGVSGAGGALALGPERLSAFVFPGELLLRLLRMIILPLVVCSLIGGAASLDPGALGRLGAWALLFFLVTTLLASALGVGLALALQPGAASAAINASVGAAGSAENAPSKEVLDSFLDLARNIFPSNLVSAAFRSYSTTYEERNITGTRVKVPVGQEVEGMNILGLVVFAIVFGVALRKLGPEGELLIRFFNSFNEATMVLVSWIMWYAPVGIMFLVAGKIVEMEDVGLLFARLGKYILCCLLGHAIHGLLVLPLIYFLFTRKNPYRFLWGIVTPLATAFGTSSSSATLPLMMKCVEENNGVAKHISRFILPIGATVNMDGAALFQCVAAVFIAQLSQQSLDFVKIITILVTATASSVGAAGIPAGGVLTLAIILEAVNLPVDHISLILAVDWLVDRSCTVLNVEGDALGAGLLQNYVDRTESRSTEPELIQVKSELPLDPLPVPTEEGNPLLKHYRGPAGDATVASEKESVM

hASCT1 = target: T3, hASCT1 (Homo sapiens, UniProt P43007); test: Electrophysiology (whole-cell current recording) of transfected HEK293 cells, hASCT1; settings: Table 3, dihydroxyproline derivatives; for pKi: read-out: Ki All DNA: hASCT1
T3 construct: expressed in transfected cells; host or cells: HEK293 (ATCC CRL-11268), transient transfection
T3 sequence (P43007 1-532): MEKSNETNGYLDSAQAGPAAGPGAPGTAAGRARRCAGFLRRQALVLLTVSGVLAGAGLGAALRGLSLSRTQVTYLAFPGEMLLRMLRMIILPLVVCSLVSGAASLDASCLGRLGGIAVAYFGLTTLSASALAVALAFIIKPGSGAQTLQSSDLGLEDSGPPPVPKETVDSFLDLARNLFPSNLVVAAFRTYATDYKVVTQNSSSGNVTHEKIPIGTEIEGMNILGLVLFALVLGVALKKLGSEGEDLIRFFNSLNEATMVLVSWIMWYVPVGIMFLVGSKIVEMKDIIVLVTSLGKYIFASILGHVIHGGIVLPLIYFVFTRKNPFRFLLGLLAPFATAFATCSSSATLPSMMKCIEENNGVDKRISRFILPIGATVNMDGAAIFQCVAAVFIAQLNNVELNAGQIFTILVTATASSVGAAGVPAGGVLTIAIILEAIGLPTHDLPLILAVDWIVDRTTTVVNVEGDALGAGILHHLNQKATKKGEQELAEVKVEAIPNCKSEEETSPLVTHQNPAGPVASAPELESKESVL
Description: as §1, §2, §3

hASCT2 [3] = target: T2, hASCT2; test: Electrophysiology (whole-cell current recording) of transfected HEK293 cells, hASCT2; settings: Table 3, dihydroxyproline derivatives; for pKi: read-out: Ki All DNA: hASCT2
Description: as §1, §2, §3

rASCT2 [4] = target: T1, rASCT2; test: Competition experiment with alanine, rASCT2; settings: second entry of the cell; for pKi: read-out: Competition Expt (h/rASCT2 Ki): rASCT2 Ki

Compound | Ki All DNA: rASCT2 (rASCT2 [1]) | Competition Expt % block (given as a decimal): hASCT2 (hASCT2 [2]; 1 mM ala) | pKi (hASCT2 [2]; 1 mM ala) | pKi (hASCT1) | Ki All DNA: hASCT2 (hASCT2 [3]) | Competition Expt % block (given as a decimal): rASCT2 (rASCT2 [4]; 1 mM ala) | pKi (rASCT2 [4]; 1 mM ala) | pKi (rASCT2 [1]) | pKi (hASCT2 [3]) | Competition Expt % block (given as a decimal): hASCT2 (hASCT2 [2]; 0.5 mM ala, decimal fraction) | pKi (hASCT2 [2]; 0.5 mM ala) | Competition Expt % block (given as a decimal): rASCT2 (rASCT2 [4]; 0.5 mM ala, decimal fraction) | pKi (rASCT2 [4]; 0.5 mM ala) | Ki All DNA: hASCT1 (hASCT1)
O=C(OC[C@@]1(O)CN[C@H](C(=O)O)C1)c1ccc(-c2ccc(F)cc2)cc1 [SN58] | Very Low | full | 4.72 | 5.51 | Very Low | full | 4.89 |  |  |  |  |  |  | 
O=C(OC[C@@]1(O)CN[C@H](C(=O)O)C1)c1ccc(-c2ccc(C(F)(F)F)cc2)cc1 [SN59] |  | full | 4.71 | 8.70 |  | full | 6.82 | 8.30 | 5.49 |  |  |  |  | 
O=C(OC[C@]1(O)CN[C@H](C(=O)O)C1)c1ccc(-c2ccc(C(F)(F)F)cc2)cc1 [SN67] |  |  |  |  |  |  |  |  | 3.94 | 0 |  | 0 |  | NA, NC

More lines, in order of rising pKi (hASCT2 [3]), values ahead:

Ki All DNA: rASCT2 (rASCT2 [1]) | Competition Expt % block (given as a decimal): hASCT2 (hASCT2 [2]; 1 mM ala) | pKi (hASCT2 [2]; 1 mM ala) | pKi (hASCT1) | Ki All DNA: hASCT2 (hASCT2 [3]) | Competition Expt % block (given as a decimal): rASCT2 (rASCT2 [4]; 1 mM ala) | pKi (rASCT2 [4]; 1 mM ala) | pKi (rASCT2 [1]) | pKi (hASCT2 [3]) | Competition Expt % block (given as a decimal): hASCT2 (hASCT2 [2]; 0.5 mM ala, decimal fraction) | pKi (hASCT2 [2]; 0.5 mM ala) | Competition Expt % block (given as a decimal): rASCT2 (rASCT2 [4]; 0.5 mM ala, decimal fraction) | pKi (rASCT2 [4]; 0.5 mM ala) | Ki All DNA: hASCT1 (hASCT1) | Compound
 |  |  | 4.23 |  |  |  | 4.59 | 4.52 | 0.8 | 4.28 | 0.4 | 3.77 |  | O=C(OC[C@]1(O)CN[C@H](C(=O)O)C1)c1ccc(-c2ccccc2)cc1 [SN65]
 |  | 4.55 |  |  |  | 4.31 | 4.56 | 4.81 |  |  |  |  |  | O=C(OC[C@]1(O)CN[C@H](C(=O)O)C1)c1ccc(-c2ccc(F)cc2)cc1 [SN66]
